Data on one compound can be found in PMC8421360, “Spectroscopic glimpses of the transition state of ATP hydrolysis trapped in a bacterial DnaB helicase” (Nature Communications, 2021).

For the assay, the target named is T1, HpDnaB (Helicobacter pylori, UniProt O25916).
T1 construct: gene dnaB; recombinant in E. coli BL21 Star (DE3), pACYC-duet1 (NdeI/XhoI); monomer 59 kDa; closed hexamer proposed with DNA, dodecamer in crystal 4ZC0
T1 sequence (O25916 1-488): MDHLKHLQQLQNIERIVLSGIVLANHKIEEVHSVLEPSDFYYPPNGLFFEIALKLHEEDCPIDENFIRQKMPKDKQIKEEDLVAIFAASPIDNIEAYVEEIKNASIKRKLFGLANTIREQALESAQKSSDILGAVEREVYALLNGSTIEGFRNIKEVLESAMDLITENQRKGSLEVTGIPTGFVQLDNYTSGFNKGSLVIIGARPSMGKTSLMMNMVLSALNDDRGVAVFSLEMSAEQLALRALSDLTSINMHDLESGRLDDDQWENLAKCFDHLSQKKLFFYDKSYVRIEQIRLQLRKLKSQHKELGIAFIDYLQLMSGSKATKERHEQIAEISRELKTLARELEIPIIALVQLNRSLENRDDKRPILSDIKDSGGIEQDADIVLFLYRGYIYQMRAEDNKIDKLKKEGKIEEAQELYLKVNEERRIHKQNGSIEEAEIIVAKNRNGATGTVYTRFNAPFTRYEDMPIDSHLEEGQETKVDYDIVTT
In words: proton-detected […],1H solid-state NMR (hPH, […] kHz MAS); Mn2+ EDNMR/ENDOR. To be noted: as ADP:AlF4- complex; Mg2+ and (dT)20 for hPH NMR, Mn2+ without DNA for EPR; pH 7.5; Walker A nucleotide site (S206, G208, K209, T210, S211). The assay is classed as binding.

As for `Nc1ncnc2c1ncn2[C@@H]1O[C@H](COP(=O)(O)OP(=O)(O)O)[C@@H](O)[C@H]1O` [ADP], the “proton-detected 31P,1H solid-state NMR (hPH, 105 kHz MAS); Mn2+ EDNMR/ENDOR” value is “spatial correlations between Pβ of ADP and S206, G208, K209 and T210”.
